“Also recorded” adds a separate entry of the source. Like-named read-outs stand apart in the source and are kept apart here.
Legend:
humans [1] = details: cited from earlier work
humans [2] = details: cited from earlier work; remark: listed apart in the source
platelets [3] = details: 4 mg/kg/day; cited from earlier work
animal = details: 500 mg/kg, bw/day for 3 months dosing; cited from earlier work
cyclooxygenase (COX) = details: in vitro studies; cited from earlier work
postmenopausal women = assay: Microvascular function by peripheral arterial tonometry (Endo-PAT2000), randomized double-blind crossover trial; format: in vivo, human; details: combined data; univariate ANOVA with Bonferroni post hoc
[4] = system: human umbilical vein endothelial cells; details: 1 μM; cited from earlier work
[5] = Plasma resveratrol concentrations (HPLC) after capsule intake; format: in vivo, human; details: 90 mg, median (interquartile range), n=30
Description: The study included two separate investigations: a one hour study and a two hour study (FIG. 1). […] The two hour study was designed to fully assess and compare the responses to trans-res and ResArgin™.
Participants were randomized by block design to consumed trans-res or ResArgin™ in random order. Randomization was performed by the study coordinator following a predetermined plan formulated via a web-based random number generator. […] The study included two separate investigations: a one hour study and a two hour study (FIG. 6). During each study visit, which took place after an overnight fast, a baseline measurement of PAT and a blood sample were collected, followed by consumption of the assigned treatment. During the one hour study, PAT measurements and blood samples were collected thirty and sixty minutes after the capsules were consumed. During the two hour study, a PAT measurement and blood sample were taken two hours after the capsules were consumed.
Briefly, plasma was treated with acidified methanol [0.5% (v/v) of acetic acid in methanol; precooled to −20° C.] containing an appropriate recovery standard. The mixture was stored at −80 C for 12 hours to allow for cryo-assisted protein precipitation, and then centrifuged for 15 min at 16,500×g. […]

platelets [6] = details: 10 mg daily for three months; cited from earlier work
platelets [7] = details: 10-1,000 μM in vitro; cited from earlier work
platelets [8] = assay: Platelet function by whole blood/optical lumi-aggregometer after capsule intake; format: in vivo, human
Description: Platelet reactivity during clinical screening was assessed by a PFA-100 (Siemens, Deerfield, Ill.), which measures platelet function by simulating arterial hemostasis under blood flow shear stress. During the intervention, platelet function was assessed by a whole blood/optical lumi-aggregometer (Chrono-log Model 700, Havertown, Pa.). Briefly, platelet aggregation was measured via electrical impedence (or electrical resistance), whereas lumi-aggregometry was used to examine aggregation together with adenosine triphosphate (hereafter, “ATP”) release, which is determined with firefly luciferin-luciferase system. […] One of the following agonists was used to stimulate platelets: collagen (1 μL and 5 μL), AA (10 μL) or ADP (10 μL). ATP release was measured only when platelets were activated with ADP. The aggregation was measured over a period of six minutes, following the addition of an agonist.

[9] = 10 mg per day for three months, stable coronary artery disease patients
[10] = 1 μL collagen, one hour post consumption vs baseline
[11] = 10 μL arachidonic acid, one hour after intake vs baseline

## Oc1ccc(C=Cc2cc(O)cc(O)c2)cc1 [Resveratrol, 3,5,4′-trihydroxystilbene]
Humans [1]; [9]
  FMD: enhanced FMD response
Humans [1]; 75 mg daily for six weeks
  FMD: enhanced FMD response
Humans [2]; 8 mg daily for six months, then 16 mg per day for six months
  Plasminogen activator inhibitor type 1 (PAI-1): significant decrease
Humans [2]; 250 mg for three months
  Total cholesterol: decrease
Humans [2]; daily intake of 8 mg for six months
  Low density lipoprotein (LDL) cholesterol: Reduction
Platelets [3]
  ADP-induced platelet aggregation: inhibited
animal
  Toxicity in animal studies: no toxicity effect

## Oc1ccc(/C=C/c2cc(O)cc(O)c2)cc1 [trans-res, Trans-resveratrol]
Cyclooxygenase (COX)
  Cyclooxygenase (COX) activity: can inhibit
Humans [1]; [9]
  FMD: significant improvement in FMD
Humans [1]; 75 mg daily for six weeks
  FMD: significant increase in FMD
Humans [1]; 75 mg, one hour post-consumption
  FMD: significant increase in FMD
Humans [1]; single dose of 30, 90 and 270 mg, one hour after consumption
  FMD: increase in FMD
Postmenopausal women
  FRHI one and two hours post-consumption compared to baseline (significance): No differences were observed; also recorded: no changes were noted
  RHI one hour after intake compared to baseline (significance): not observed
[4]
  Expression of eNOS: up-regulated
[5]; 30 minutes after intake
  Plasma resveratrol concentration: 2.04 (0.82, 2.54)
[5]; 60 minutes after intake
  Plasma resveratrol concentration: 2.65 (1.69, 3.44)
Platelets [6]
  Platelet aggregation: significantly reduced
Platelets [7]
  Platelet aggregation: significantly reduced aggregation in a dose dependent fashion
Platelets [8]; [10]
  Lag time of platelet aggregation: significant increase
  Slope of platelet aggregation: not for the trans-res group
Platelets [8]; 5 μL collagen, one hour post consumption vs baseline
  Platelet function changes: no significant changes
Platelets [8]; 10 μL ADP, one hour post consumption vs baseline
  Slope, lumi-aggregometry: significant decrease
Platelets [8]; [11]
  Area under the curve (AUC) of aggregation: no changes were noted
  Maximum aggregation: no changes were noted
